Test results from patent US11648254B2 (Kumquat Biosciences Inc., priority 2021, dated 2023).
pIC50: −log10 of the molar value. Read-outs that look alike come from different tables or passages of the source.

Experiments:
SOS1 = SOS1 (Homo sapiens (Human), UniProt Q07889); test: Ras-SOS interaction assay (HTRF); assay type: biochemical
[1] = test system: MIA PaCa-2 cells (K-Ras G12C); test: Ras-SOS cellular growth inhibition assay (CellTiter-Glo, 3D); assay type: cell-based; settings: Homo sapiens
Procedure, shortened: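 MIA PaCa-2 cells grown in ultra-low-attachment plates (3D) in DMEM/Ham's F12 with 10% FCS and 2.5% horse serum, treated the day after seeding with a 9-point 3-fold compound series for about 5 days. Viability by CellTiter-Glo luminescence; IC50 from four-parameter fit.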

[2] = test system: NCI-H1975 cells (EGFR T790M L858R); test: EGFR-SOS cellular inhibition assay (CellTiter-Glo, 3D); assay type: cell-based; settings: Homo sapiens
[3] = In vitro plasma protein binding (PPB); assay type: in vitro ADME; settings: percentage of free/unbound compound
[4] = K-RasG13D utilized, read-out: IC50 inhibition of SOS
[5] = K-RasG13D, read-out: IC50 value against SOS1
[6] = MIA PaCa-2, 120 h, MIA PaCa-2, 3D proliferation, about 5 days, read-out: Bio-Cell-Prolif-3D (MiaPaca2 IC50)
[7] = MIA PaCa-2, MIA PaCa-2, read-out: IC50 in inhibiting MIA PaCa-2 cell growth
[8] = 120 h, NCI-H1975, 3D proliferation, about 5 days, read-out: Bio-Cell-Prolif-3D (H1975 IC50)
[9] = NCI-H1975, EGFR T790M L858R, read-out: IC50 in inhibiting growth of NCI-H1975 cell line

Chain of SOS1 (Q07889 564-1049): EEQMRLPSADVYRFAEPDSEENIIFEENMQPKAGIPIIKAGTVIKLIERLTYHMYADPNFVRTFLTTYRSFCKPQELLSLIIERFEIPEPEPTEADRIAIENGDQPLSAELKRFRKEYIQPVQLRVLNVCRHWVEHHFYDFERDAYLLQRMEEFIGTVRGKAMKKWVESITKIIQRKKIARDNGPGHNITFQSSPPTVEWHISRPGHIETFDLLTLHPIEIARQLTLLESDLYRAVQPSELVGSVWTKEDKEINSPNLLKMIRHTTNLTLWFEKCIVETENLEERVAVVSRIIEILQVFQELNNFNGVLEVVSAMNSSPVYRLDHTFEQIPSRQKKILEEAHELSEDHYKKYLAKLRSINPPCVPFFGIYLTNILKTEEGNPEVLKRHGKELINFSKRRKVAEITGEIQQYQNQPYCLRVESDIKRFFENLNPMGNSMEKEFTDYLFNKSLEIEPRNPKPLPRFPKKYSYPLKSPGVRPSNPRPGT

| SMILES | pIC50 (SOS1; [4]) | pIC50 (SOS1; [5]) | pIC50 [1, 6] | pIC50 [1, 7] | pIC50 [2, 8] | pIC50 [2, 9] | DMPK-invitro-PPB (Mouse Unbound) [%] [3] [%] |
| --- | --- | --- | --- | --- | --- | --- | --- |
| COc1nc2ncnc(N[C@H](C)c3cccc(C(F)(F)F)c3F)c2cc1C1CCN(C2CCOCC2)CC1 [Compound 164, (R)-N-(1-(2-fluoro-3-(trifluoromethyl)phenyl)ethyl)-7-methoxy-6-(1-(tetrahydro-2H-pyran-4-yl)piperidin-4-yl)pyrido[2,3-d]pyrimidin-4-amine] | > 7.00 | > 7.30 | ≥ 6.00 | > 6.30 | ≥ 6.00 | > 6.30 | 1.6 |
| COc1nc2ncnc(N[C@H](C)c3cccc(C(F)(F)C(C)(C)O)c3)c2cc1N1CCN(C(C)C)CC1 [Compound 202, (R)-1,1-difluoro-1-(3-(1-((6-(4-isopropylpiperazin-1-yl)-7-methoxypyrido [2,3-d]pyrimidin-4-yl)amino)ethyl)phenyl)-2-methylpropan-2-ol] | > 7.00 | > 7.30 | ≥ 6.00 | > 6.30 | ≥ 6.00 | > 6.30 | 19.85 |
| COc1nc2ncnc(N[C@H](C)c3cccc(C(C)(F)F)c3F)c2cc1C1CCS(=O)(=O)CC1 [Compound 267, (R)-4-(4-((1-(3-(1,1-difluoroethyl)-2-fluorophenyl)ethyl)amino)-7-methoxypyrido[2,3-d]pyrimidin-6-yl)tetrahydro-2H-thiopyran 1,1-dioxide] | > 7.00 | > 7.30 | ≥ 6.00 | > 6.30 | ≥ 6.00 | > 6.30 | 5.6 |
| COc1nc2ncnc(N[C@H](C)c3cccc(C(F)(F)C(C)(C)O)c3F)c2cc1N1CCN(C(C)C)CC1 [Compound 273, (R)-1,1-difluoro-1-(2-fluoro-3-(1-((6-(4-isopropylpiperazin-1-yl)-7-methoxypyrido[2,3-d]pyrimidin-4-yl)amino)ethyl)phenyl)-2-methylpropan-2-ol] | > 7.00 | > 7.30 | ≥ 6.00 | > 6.30 | ≥ 6.00 | > 6.30 | 12.22 |
| COc1nc2nc(C)nc(N[C@H](C)c3cccc(C(F)(F)F)c3F)c2cc1N1CCS(=O)(=O)CC1 [Compound 305, (R)-4-(4-((1-(2-fluoro-3-(trifluoromethyl)phenyl)ethyl)amino)-7-methoxy-2-methylpyrido[2,3-d]pyrimidin-6-yl)thiomorpholine 1,1-dioxide] | > 7.00 | > 7.30 | ≥ 6.00 | > 6.30 | ≥ 6.00 | > 6.30 | 1.24 |
| COc1nc2ncnc(N[C@H](C)c3cccc(C(F)(F)F)c3F)c2cc1N1CCS(=O)(=O)CC1 [Compound 308, (R)-4-(4-((1-(2-fluoro-3-(trifluoromethyl)phenyl)ethyl)amino)-7-methoxypyrido[2,3-d]pyrimidin-6-yl)thiomorpholine 1,1-dioxide] | > 7.00 | > 7.30 | ≥ 6.00 | > 6.30 | ≥ 6.00 | > 6.30 | 2.91 |
| COc1nc2ncnc(N[C@H](C)c3cccc(C(F)F)c3F)c2cc1N1CCN(C(C)C)CC1 [Compound 316, (R)-N-(1-(3-(difluoromethyl)-2-fluorophenyl)ethyl)-6-(4-isopropylpiperazin-1-yl)-7-methoxypyrido[2,3-d]pyrimidin-4-amine] | > 7.00 | > 7.30 | 5.00 to 6.00 |  | ≥ 6.00 | > 6.30 | 9.83 |
| COc1nc2nc(C)nc(N[C@H](C)c3cccc(C(F)(F)C(C)(C)O)c3F)c2cc1N1CCN(C(C)C)CC1 [Compound 322, (R)-1,1-difluoro-1-(2-fluoro-3-(1-((6-(4-isopropylpiperazin-1-yl)-7-methoxy-2-methylpyrido[2,3-d]pyrimidin-4-yl)amino)ethyl)phenyl)-2-methylpropan-2-ol] | > 7.00 | > 7.30 | ≥ 6.00 | > 6.30 | ≥ 6.00 | > 6.30 | 6.33 |
| COc1nc2nc(C)nc(N[C@H](C)c3cccc(C(F)(F)C(C)(C)O)c3)c2cc1N1CCN(C(C)C)CC1 [Compound 325, (R)-1,1-difluoro-1-(3-(1-((6-(4-isopropylpiperazin-1-yl)-7-methoxy-2-methylpyrido[2,3-d]pyrimidin-4-yl)amino)ethyl)phenyl)-2-methylpropan-2-ol] | > 7.00 | > 7.30 | ≥ 6.00 | > 6.30 | ≥ 6.00 | > 6.30 | 12.8 |
| COc1nc2ncnc(N[C@H](C)c3cccc(C(F)F)c3F)c2cc1N1CCS(=O)(=O)CC1 [Compound 339, (R)-4-(4-((1-(3-(difluoromethyl)-2-fluorophenyl)ethyl)amino)-7-methoxypyrido[2,3-d]pyrimidin-6-yl)thiomorpholine 1,1-dioxide] | > 7.00 | > 7.30 | ≥ 6.00 |  | ≥ 6.00 | > 6.30 | 15.32 |
| CCN1CCC(c2cc3c(N[C@H](C)c4cccc(C(F)(F)F)c4C)ncnc3nc2OC)CC1 [Compound 353, (R)-6-(1-ethylpiperidin-4-yl)-7-methoxy-N-(1-(2-methyl-3-(trifluoromethyl)phenyl)ethyl)pyrido [2,3-d]pyrimidin-4-amine] | > 7.00 | > 7.30 | ≥ 6.00 | > 6.30 | ≥ 6.00 | > 6.30 | 0.74 |
| COc1nc2ncnc(N[C@H](C)c3cccc(C(F)(F)F)c3C)c2cc1C1CCS(=O)(=O)CC1 [Compound 373, (R)-4-(7-methoxy-4-((1-(2-methyl-3-(trifluoromethyl)phenyl)ethyl)amino)pyrido[2,3-d]pyrimidin-6-yl)tetrahydro-2H-thiopyran 1,1-dioxide] |  | > 7.30 | ≥ 6.00 | > 6.30 | ≥ 6.00 |  | 2.93 |

Next, values leading:

| pIC50 (SOS1; [4]) | pIC50 (SOS1; [5]) | pIC50 [1, 6] | pIC50 [1, 7] | pIC50 [2, 8] | pIC50 [2, 9] | DMPK-invitro-PPB (Mouse Unbound) [%] [3] [%] | SMILES |
| --- | --- | --- | --- | --- | --- | --- | --- |
| > 7.00 | > 7.30 | ≥ 6.00 |  | ≥ 6.00 | > 6.30 | 0.12 | COc1nc2nc(C)nc(N[C@H](C)c3cccc(C(F)(F)F)c3C)c2cc1N1CCN(C(C)C)CC1 [Compound 171, (R)-6-(4-isopropylpiperazin-1-yl)-7-methoxy-2-methyl-N-(1-(2-methyl-3-(trifluoromethyl)phenyl)ethyl)pyrido[2,3-d]pyrimidin-4-amine] |
| > 7.00 | > 7.30 | ≥ 6.00 | > 6.30 | ≥ 6.00 | > 6.30 | 0.41 | COc1nc2nc(C)nc(N[C@H](C)c3cccc(C(F)(F)F)c3F)c2cc1N1CCN(C(C)C)CC1 [Compound 211, (R)-N-(1-(2-fluoro-3-(trifluoromethyl)phenyl)ethyl)-6-(4-isopropylpiperazin-1-yl)-7-methoxy-2-methylpyrido[2,3-d]pyrimidin-4-amine] |
| > 7.00 | > 7.30 | ≥ 6.00 | > 6.30 | ≥ 6.00 | > 6.30 | 0.11 | COc1nc2nc(C)nc(N[C@H](C)c3cccc(C(F)(F)F)c3C)c2cc1C1CCN(C(C)C)CC1 [Compound 236, (R)-6-(1-isopropylpiperidin-4-yl)-7-methoxy-2-methyl-N-(1-(2-methyl-3-(trifluoromethyl)phenyl)ethyl)pyrido [2,3-d]pyrimidin-4-amine] |
| > 7.00 | > 7.30 | ≥ 6.00 | > 6.30 | ≥ 6.00 | > 6.30 | 0.39 | COc1nc2nc(C)nc(N[C@H](C)c3cccc(C(F)(F)F)c3F)c2cc1C1CCN(C(C)C)CC1 [Compound 287, (R)-N-(1-(2-fluoro-3-(trifluoromethyl)phenyl)ethyl)-6-(1-isopropylpiperidin-4-yl)-7-methoxy-2-methylpyrido[2,3-d]pyrimidin-4-amine] |
| > 7.00 | > 7.30 | ≥ 6.00 |  | ≥ 6.00 | > 6.30 | 1.03 | COc1nc2ncnc(N[C@H](C)c3cccc(C(F)(F)F)c3C)c2cc1C1CCN(C(C)C)CC1 [Compound 348, (R)-6-(1-isopropylpiperidin-4-yl)-7-methoxy-N-(1-(2-methyl-3-(trifluoromethyl)phenyl)ethyl)pyrido [2,3-d]pyrimidin-4-amine] |
| > 7.00 | > 7.30 | ≥ 6.00 | > 6.30 | ≥ 6.00 | > 6.30 | 0.22 | CCN1CCC(c2cc3c(N[C@H](C)c4cccc(C(F)(F)F)c4C)nc(C)nc3nc2OC)CC1 [Compound 351, (R)-6-(1-ethylpiperidin-4-yl)-7-methoxy-2-methyl-N-(1-(2-methyl-3-(trifluoromethyl)phenyl)ethyl)pyrido [2,3-d]pyrimidin-4-amine] |
